Source: patent US20120116069A1, “GLUCOSE METABOLISM-IMPROVING AGENT AND GLUCOSE METABOLISM-IMPROVING COMPOSITION” (LION CORPORATION, priority 2009, published 2012)
Marks after values point to notes of the source that are not given here.

Test system: cells derived from rat skeletal muscle (L6 cells)
Assay: Intake of RI-labeled 2-deoxyglucose into differentiated L6 cells
Assay type: cell-based
Details: n=4
Method: Cells derived from rat skeletal muscle (L6 cells, product of Dainippon Pharmaceutical Co., Ltd.) were suspended in 15 mL of DMEM (Dulbecco's modified Eagle medium, product of SIGMA Co.) containing 10% by mass FBS (fetal bovine serum, product of GIBCO Co.) and 1% by mass AB (anti-biotic solution, product of SIGMA Co.). The resultant suspension was dispensed into 75-cm^2 culture flasks and then statically cultured at 37° C. under 5% CO2. After having reached subconfluency (80%), each culture was placed in a 24-well plate (product of SUMITOMO BAKELITE CO., LTD.) at 50,000 cells/well. After having reached confluency, the cells were cultured for three days. Then, the medium was exchanged with MEM (minimal essential medium, product of NACALAI TESQUE, INC.) containing 2% by mass FBS and 1% by mass AB to thereby induce differentiation of the L6 cells. Eight days after the induction of differentiation, a solution of panaxatriol (PT) (product of LKT Laboratories, Inc.) in ethanol was added to the resultant medium so that the concentration of panaxatriol (PT) was 1 ppm or 10 ppm. The PT-free well was used as a control for each of these wells. Then, 30 hours after, the medium of each well was exchanged with MEM containing 2% by mass BSA (bovine serum albumin, product of SIGMA Co.) and panaxatriol (PT) at a concentration of 1 ppm or 10 ppm, to thereby terminate sensitization. Furthermore, 18 hours after, the MEM containing 2% by mass BSA was removed, and a KRH buffer (50 mM HEPES (product of SIGMA Co.), pH 7.4, 137 mM sodium chloride (product of Wako Pure Chemical Industries, Ltd.), 4.8 mM potassium chloride (product of Wako Pure Chemical Industries, Ltd.), 1.85 mM calcium chloride (product of Wako Pure Chemical Industries, Ltd.) and 1.3 mM magnesium sulfate (product of Wako Pure Chemical Industries, Ltd.)) was added to the wells at 30 μL/well. Thereafter, 6 μL of RI-labeled 2-deoxyglucose (2-DG, product of American Radiolabeled Chemicals Co.) (final concentration: 6.5 mM (0.5·Ci)) was added to the wells to perform reaction. Five minutes after the initiation of reaction, the cells were washed four times with an ice-cooled KRH buffer to remove 2-DG that had not been taken into the L6 cells. After removal of the KRH buffer, the cells were lysed with 250 μL of 0.05N sodium hydroxide (product of Wako Pure Chemical Industries, Ltd.) and recovered in a vial. In addition, the wells were washed twice with 200 μL of the KRH buffer and recovered in the vial similarly. Then, 3 mL of liquid scintillation cocktail PICOFLOUR (product of PerkinElmer Co., Ltd.) was added to the vial containing the cells recovered, followed by measuring for radioactivity with a liquid scintillation counter (LSC-5100, product of Aloka Co.). […]

| SMILES | Relative activity (radioactivity of 2-DG taken in, compound-free well = 100) (1 ppm) | Relative activity (radioactivity of 2-DG taken in, compound-free well = 100) (10 ppm) |
| --- | --- | --- |
| CC1(C)CCC[C@](C)([C@H]2CC[C@]3(C)[C@@H]2[C@H](O)C[C@@H]2[C@@]4(C)CC[C@H](O)C(C)(C)[C@@H]4CC[C@]23C)O1 [PD, panaxadiol] | 130* | 140** |
| CC1(C)CCC[C@](C)([C@H]2CC[C@]3(C)[C@@H]2[C@H](O)C[C@@H]2[C@@]4(C)CC[C@H](O)C(C)(C)[C@@H]4[C@@H](O)C[C@]23C)O1 [PT, panaxatriol] | 132* | 145** |
